Molecules are shown by their SMILES. Entries after “also recorded” stand apart in the source; their conditions may differ.

Usually Kd stands for the constant that tells how readily two partners part at equilibrium.

One data set concerns HEK293T cells. Description: WST-8 cytotoxicity assay. It counts as cell-based. The following applies: stable Renilla luciferase activity and WST-8 assay; 100 μM.
The target of the next data set is Nur77 (NR4A1) (Homo sapiens, UniProt P22736). It counts as cell-based.
Nur77 (NR4A1), sequence (P22736 360-595 limits assumed, species assumed): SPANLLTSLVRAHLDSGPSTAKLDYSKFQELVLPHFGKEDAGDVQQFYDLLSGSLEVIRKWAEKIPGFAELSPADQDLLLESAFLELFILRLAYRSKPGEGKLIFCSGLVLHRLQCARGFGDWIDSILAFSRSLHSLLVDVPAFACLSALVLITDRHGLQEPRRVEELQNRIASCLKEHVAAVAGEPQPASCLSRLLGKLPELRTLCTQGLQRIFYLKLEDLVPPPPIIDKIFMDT
The target of a further data set is T1, NOR-1 (NR4A3) (Homo sapiens, UniProt Q92570).
T1 sequence (Q92570 394-623 limits assumed): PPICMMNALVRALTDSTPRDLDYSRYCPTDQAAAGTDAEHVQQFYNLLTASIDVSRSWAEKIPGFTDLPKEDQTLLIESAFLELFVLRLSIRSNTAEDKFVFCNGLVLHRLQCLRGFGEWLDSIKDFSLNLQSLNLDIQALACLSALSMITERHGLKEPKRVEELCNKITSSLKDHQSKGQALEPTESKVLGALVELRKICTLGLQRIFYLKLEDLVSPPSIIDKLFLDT
It counts as cell-based.

Data set [1] deals with nuclear receptors outside the NR4A family (THRα, RARα, PPARγ, revERBα, RORγ, VDR, LXRα, FXR, RXRα). It counts as cell-based.
Data set [2] can be described thus: Glutathione reactivity assay. In kind it is physicochemical. The conditions noted are these: 125 μM compound, 2.5 mM GSH in PBS at 37 °C, up to 24 h.
For data set [3], the system named is TH and VMAT2 mRNA expression in T98G cells. It counts as cell-based, human.
The subject of data set [4] is TH, VMAT2, SOD1/2 mRNA expression in N27 rat dopaminergic neural cells. It counts as cell-based.
In data set [5] the target is Nurr1 LBD (Homo sapiens, UniProt P43354). Description: Isothermal titration calorimetry. In kind it is binding. The conditions noted are these: ITC, 25 °C, recombinant Nurr1 LBD. A general note: ITC needs no label: the signal is the heat of the interaction.
Nurr1 LBD (Homo sapiens, UniProt P43354), sequence (P43354 360-598): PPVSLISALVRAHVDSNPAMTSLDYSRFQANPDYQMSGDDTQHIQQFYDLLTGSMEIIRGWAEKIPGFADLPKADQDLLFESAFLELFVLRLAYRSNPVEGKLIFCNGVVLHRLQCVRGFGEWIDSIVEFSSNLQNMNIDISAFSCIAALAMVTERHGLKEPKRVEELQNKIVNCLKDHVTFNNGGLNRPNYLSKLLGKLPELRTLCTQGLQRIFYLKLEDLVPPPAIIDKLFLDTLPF
Data set [6] deals with Nurr1 LBD. The conditions noted are these: cited from earlier work.

For the compound `CN(C)CCOc1ccc(Cl)cc1NC(=O)c1cc2[nH]ccc2cc1Cl` [5o, 5-Chloro-N-{5-chloro-2-[2-(dimethylamino)ethoxy]phenyl}-1H-indole-6-carboxamide], in the data set on HEK293T cells, the “effect on cell viability” value is reported as “no pronounced effect on cell viability”. Also, on Nur77 (NR4A1), the “activity on Nur77 (NR4A1)” value was “preference for Nurr1 over the related NR4A receptors; also recorded: preference of 5o for Nurr1 over Nur77”. Further, the “activity on NOR-1 (NR4A3)” value at NOR-1 (NR4A3) is “preference for Nurr1 over the related NR4A receptors; also recorded: no NOR-1 (NR4A3) activation”. Moreover, in data set [1], the “modulation of nuclear receptors outside the NR4A family” value is listed as “did not modulate; also recorded: No nuclear receptor modulation”. Also, the “stability against reaction with glutathione (GSH)” value in data set [2] is “stable; also recorded: High stability”. In addition, the “Nurr1-regulated mRNA expression of TH and VMAT2” value in data set [3] was “induced”. For the same compound, the “TH, VMAT, SOD1/2 expression” value in data set [4] is “induced”.
Consider `CC(C)N1CCC(NC(=O)c2cc3[nH]ccc3cc2Cl)CC1` [5e], for which the Kd result on Nurr1 LBD [5] is reported as “no detectable interaction; also recorded: no binding^c”. The “effect on cell viability” value in the data set on HEK293T cells is recorded as “no pronounced effect on cell viability”.
Regarding `CN(C)CCOc1ccc(Cl)cc1Nc1ccnc2cc(Cl)ccc12` [compound 13, 7-Chloro-N-{5-chloro-2-[2-(dimethylamino)ethoxy]phenyl}quinolin-4-amine], the “activity on Nur77 (NR4A1)” value on Nur77 (NR4A1) was “activated Nurr1 and Nur77 with equal potency”. For the same compound, at NOR-1 (NR4A3), the “activity on NOR-1 (NR4A3)” value is reported as “preference over NOR-1; also recorded: less active on NOR-1”. The “modulation of nuclear receptors outside the NR4A family” value in [1] is “did not modulate; also recorded: No nuclear receptor modulation”. Also, the “TH, VMAT, SOD1/2 expression” value in [4] was “induced”.
Turning to `Clc1ccc2[nH]ccc2c1` [2b, 5-chloro-1H-indole], in data set [4], the “TH, VMAT, SOD1/2 expression” value was “induced”. Besides, on Nurr1 LBD [6], the Kd was 15 µM.
On to `CC1CCN(CCCNC(=O)c2cc3[nH]ccc3cc2Cl)CC1` [5m], for which the Kd entry on Nurr1 LBD [5] is “no detectable interaction; also recorded: no binding^c”. Besides, in the data set with HEK293T cells, the “effect on cell viability” value is given as “no pronounced effect on cell viability”.
With `CCCCN1CCC(CNC(=O)c2cc3[nH]ccc3cc2Cl)C1` (centres unmarked) [5v], in the data set with HEK293T cells, the “effect on cell viability” value is “no pronounced effect on cell viability”.
As to `Oc1cc2cc[nH]c2cc1O` [DHI (2a), 5,6-dihydroxyindole], in data set [4], the TH expression result is listed as “downregulated” and the “TH, VMAT, SOD1/2 expression” value was “generally weaker effects”.
`CCN(CC)C1CCC(NC(=O)c2cc3[nH]ccc3cc2Cl)CC1` (centres unmarked) [5t]: at Nurr1 LBD [5], the Kd result is recorded as “no detectable interaction; also recorded: no binding^c”. Also, the “effect on cell viability” value in the data set with HEK293T cells was “no pronounced effect on cell viability”.
Regarding `O=C(NCCN1CCC2CCCCC2C1)c1cc2[nH]ccc2cc1Cl` (centres unmarked) [5r], in the data set with HEK293T cells, the “effect on cell viability” value is reported as “no pronounced effect on cell viability”.

(Values after publication PMC10578347 (Journal of Medicinal Chemistry, 2023).)
